According to US20090081639A1, “Assay for sensitivity to chemotherapeutic agents” (priority 2007, published 2009):
Values after ≈ are worked out from the molar mass of the structure shown.

Key:
Format in all cases: cell-based, human
[1] = tested on: THP-1 Acute myeloid leukemia cells; experiment: Chemotherapeutic Sensitivity Assay (Gus and/or LacZ output), batch infection with GLV-1h68, Example 3; conditions: for LacZ/infection inhibition / MIC VV: THP-1, GLV-1h68 MOI 10, 24 hours, visual; for LacZ/infection inhibition: β-galactosidase output; for MIC VV: β-glucuronidase (Gus) output
THP-1 cells [2] = experiment: MTT cell viability assay, Example 3; conditions: for MIC MTT / concentration at which cell death / inhibition was observed in the MTT assay: THP-1, approximately 48 hours; for MIC MTT: visual; for concentration at which cell death / inhibition was observed in the MTT assay: text of Example 3
HL-60 cells [3] = tested on: HL-60 cells
THP-1 cells [4] = tested on: THP-1 cells
KG1a cells [5] = tested on: KG1a cells
HL-60 cells [6] = experiment: Cell viability and growth assay (MTT reduction), Example 2; conditions: HL-60, approximately 48 hours, visual assessment
THP-1 cells [7] = experiment: as above; conditions: THP-1, approximately 48 hours, visual assessment
KG1a cells [8] = experiment: as above; conditions: approximately 48 hours, visual assessment
[9] = THP-1, GLV-1h68, 24 hours, text of Example 3
[10] = THP-1, maximal concentration used
[11] = THP-1, next lowest concentration

COc1cc([C@@H]2c3cc4c(cc3[C@@H](O[C@@H]3O[C@@H]5CO[C@@H](C)O[C@H]5[C@H](O)[C@H]3O)[C@H]3COC(=O)[C@H]23)OCO4)cc(OC)c1O [Etopocide, etoposide]
LacZ/infection inhibition [1]: >50 µM
MIC VV [1]: 5 µM (≈ 2.94 µg/mL)
MIC MTT (THP-1 cells [2]): 5 µM (≈ 2.94 µg/mL)

CC(=O)O[C@@]12CO[C@@H]1C[C@H](O)[C@@]1(C)C(=O)[C@H](O)C3=C(C)[C@@H](OC(=O)[C@H](O)[C@@H](NC(=O)OC(C)(C)C)c4ccccc4)C[C@@](O)([C@@H](OC(=O)c4ccccc4)[C@H]21)C3(C)C [Docetaxel, docetaxel]
concentration at which β-galactosidase expression was inhibited ([1]; THP-1, Example 3): ≥ 46 µM
concentration at which inhibition of β-glucuronidase expression was observed [1, 9]: 460 µM
LacZ/infection inhibition [1]: >46 µM
MIC VV [1]: 460 µM (≈ 372 µg/mL)
concentration at which cell death / inhibition was observed in the MTT assay (THP-1 cells [2]): 46 µM
MIC MTT (THP-1 cells [2]): 46 µM (≈ 37.2 µg/mL)

Nc1ccn([C@@H]2O[C@H](CO)[C@@H](O)[C@@H]2O)c(=O)n1 [Ara-C, cytosine arabinoside]
β-galactosidase expression (P7.5k early/late promoter) in presence of Ara-C (HL-60 cells [3]; HL-60, GLV-1h68 MOI 10, 1 nM-1 mM Ara-C, 24 hours, X-gal, visual assessment): equally robust in the presence or absence of Ara-C
effect on β-glucuronidase expression (P11k late promoter) (HL-60 cells [3]; HL-60, GLV-1h68 MOI 10, 1 nM-1 mM Ara-C, 24 hours, X-gluc, visual assessment): dose-dependent inhibition
concentration at which β-glucuronidase expression was undetectable by eye (complete abrogation of viral late transcription) (HL-60 cells [3]; HL-60, GLV-1h68 MOI 10, 24 hours, printed as 1 mM to 1 μM): ≥ 1 µM
β-galactosidase expression (P7.5k early/late promoter) in presence of Ara-C (THP-1 cells [4]; THP-1, GLV-1h68 MOI 10, 1 nM-1 mM Ara-C, 24 hours, X-gal, visual assessment): equally robust in the presence or absence of Ara-C
effect on β-glucuronidase expression (P11k late promoter) (THP-1 cells [4]; THP-1, GLV-1h68 MOI 10, 1 nM-1 mM Ara-C, 24 hours, X-gluc, visual assessment): dose-dependent inhibition
concentration at which β-glucuronidase expression was undetectable by eye (complete abrogation of viral late transcription) (THP-1 cells [4]; THP-1, GLV-1h68 MOI 10, 24 hours, printed as 1 mM to 1 μM): ≥ 1 µM
β-galactosidase expression (P7.5k early/late promoter) in presence of Ara-C (KG1a cells [5]; GLV-1h68 MOI 10, 1 nM-1 mM Ara-C, 24 hours, X-gal, visual assessment): equally robust in the presence or absence of Ara-C
effect on β-glucuronidase expression (P11k late promoter) (KG1a cells [5]; GLV-1h68 MOI 10, 1 nM-1 mM Ara-C, 24 hours, X-gluc, visual assessment): dose-dependent inhibition
concentration at which late viral transcription, as measured by β-glucuronidase expression, was abrogated (KG1a cells [5]; GLV-1h68 MOI 10, 24 hours, 'as low as'): ≥ 100 nM
concentration at which reduction of MTT was abrogated (HL-60 cells [6]): ≥ 1 µM
concentration at which reduction of MTT was abrogated (THP-1 cells [7]): ≥ 1 µM
concentration at which reduction of MTT was abrogated (KG1a cells [8]): ≥ 100 nM
concentration at which inhibition of β-glucuronidase expression was observed [1, 9]: ≥ 1 µM
LacZ/infection inhibition [1]: >1000 µM
MIC VV [1]: 1 µM (≈ 0.243 µg/mL)
β-galactosidase expression ([1]; THP-1, all concentrations less than the maximal concentration of the drug tested): unaffected
concentration at which limited inhibition of β-galactosidase expression was seen ([1]; THP-1, highest concentration of the drug tested): 1 mM
concentration at which cell death / inhibition was observed in the MTT assay (THP-1 cells [2]): ≥ 1 µM
MIC MTT (THP-1 cells [2]): 1 µM (≈ 0.243 µg/mL)

COc1cccc2c1C(=O)c1c(O)c3c(c(O)c1C2=O)C[C@@](O)(C(C)=O)C[C@@H]3O[C@H]1C[C@H](N)[C@H](O)[C@H](C)O1 [Daunorubicin, daunorubicin]
concentration at which some inhibition of β-galactosidase expression was seen ([1]; THP-1, Example 3): greater than 100 nM
concentration at which dose-dependent inhibition of β-glucuronidase expression starts [1, 9]: ≥ 10 nM
LacZ/infection inhibition [1]: >0.1 µM
MIC VV [1]: 0.01 µM (≈ 0.00528 µg/mL)
concentration at which cell death / inhibition was observed in the MTT assay (THP-1 cells [2]): ≥ 10 µM
MIC MTT (THP-1 cells [2]): 0.01 µM (≈ 0.00528 µg/mL)

N.N.[Cl][Pt][Cl] [Cisplatin, cisplatin]
MIC MTT (THP-1 cells [2]): 33 µM
MIC MTT, qualifier in words (THP-1 cells [2]; THP-1, line below the MIC MTT value): partial
MTT assay observation (THP-1 cells [2]; [10]): cell death
MTT assay observation (THP-1 cells [2]; [11]): only slight cell death

O=c1[nH]cc(F)c(=O)[nH]1 [5-Fluorouracil, 5-fluorouracil]
MIC VV [1]: 1.9 µM (≈ 0.247 µg/mL)
concentration giving very pale blue/pink color in the β-glucuronidase assay, indicating partial cell killing ([1]; THP-1, highest drug concentration tested): 1.9 µM
MIC MTT (THP-1 cells [2]): 1.9 µM (≈ 0.247 µg/mL)
MTT assay observation (THP-1 cells [2]; [10]): cell death
MTT assay observation (THP-1 cells [2]; [11]): only slight cell death

O=P1(N(CCCl)CCCl)NCCCO1 (stereo not drawn) [Cyclophosphamide, cyclophosphamide]
concentration at which β-galactosidase expression was inhibited ([1]; THP-1, Example 3): above 100 μM
concentration at which inhibition of β-glucuronidase expression was observed [1, 9]: above 100 μM
MIC VV [1]: >100 µM
concentration at which cell death / inhibition was observed in the MTT assay (THP-1 cells [2]): above 100 μM
MIC MTT (THP-1 cells [2]): >100 µM
